Here are results for 1 compound from US10004773B2, “Plant compositions and methods and uses thereof for treating elevated glucocorticoid related disorders, and anxiety” (University of Ottawa, priority 2012, dated 2018).

For the assay, the system named is nursery piglets. Description: Feeding study in weaned nursery piglets. The assay is classed as in vivo, pig. Here is the method: The test materials used in the study were the Souroubea gilgii and purified betulinic acid. The Souroubea gigli plant samples (labelled SS for Souroubea sp.) were harvested from the canals in Tortuguero, Costa Rica. The samples were chipped, dried and powdered. Samples were dried overnight in a commercial plant drier at 35° C. and ground to 1 mm mesh.
The objective of the study was to investigate the production performance and stress related responses in nursery piglets that were fed a supplemented of either dried Souroubea gilgii plant material (SS) or one of its active anxiolytic compounds, purified betulinic acid (BA). The following parameters were evaluated: (1) plasma levels of Acute Phase Proteins (APP) and cortisol, (2) behavioral and stress related aggressive interactions and injuries (aggressive pushing, number of fights and the duration of fights in seconds), (3) production performance parameters (average daily gain (ADG), feed intake, feed efficiency (kg feed/kg body weight gain)) and (4) health evaluation (incidence of disease, disease treatments and deaths).
The study included 300 piglets that were 21 days of age at the start of the experiment (day of weaning and first day of treatment). The piglets were treated at days 0 and 21 and monitored over a 39 day period. The pigs were 60 days of age at the end of the study. Pigs were randomly assigned to one of five treatment groups, with 60 pigs in each group: (1) Group A. untreated control, (2) Group B. 0.5 mg BA/kg body weight, (3) Group C. 1 mg BA/kg body weight, (4) Group D. 2 mg BA/kg body weight and (5) Group E. SS group, 500 mg ground SS leaves/kg body weight (BA concentration equivalent to 0.5 mg BA/kg body weight).
Blood samples from 8 pigs in each treatment group were drawn on days 0, 2, 7, 14, 21 and 39 for a total of 240 blood samples, to determine plasma APP and cortisol levels. The same pigs from each treatment group were used for each blood sample day. Pigs were also weighed and feed intake was measured on these days to calculate performance parameters.

In the case of `C=C(C)[C@@H]1CC[C@]2(C(=O)O)CC[C@]3(C)[C@H](CC[C@@H]4[C@@]5(C)CC[C@H](O)C(C)(C)[C@@H]5CC[C@]43C)[C@@H]12` [BA, betulinic acid], where the note is “2 mg/kg (Group D)”, the number of wounds result is “appeared to reduce”. For the same compound, the “aggressive behavior and extent of injuries” value (BA doses below 2 mg/kg) is listed as “little effect”. The plasma cortisol levels entry (day 2, Group C 1 mg/kg BA, vs Groups A and B, p<0.01) is “significantly lower”; the plasma cortisol levels entry (day 2, Group D 2 mg/kg BA, vs Groups A and B, p<0.01) was “significantly lower”; the plasma cortisol levels result (days 7 and 14, Group D 2 mg BA/kg, vs Group A, p<0.05) is “significantly lower”; the plasma cortisol levels entry (first 14 days post-weaning, 2 mg BA/kg) was “significantly reduced”. Further, the “dose required to reduce plasma cortisol in the first days after weaning” value (piglets) was 1 mg BA/kg.
